According to patent EP0498290B1, “Pyridobenzodiazepines, dipyrido [3,2-b:2',3'-e] [1,4]diazepines and their use in the prevention or treatment of HIV infection” (BOEHRINGER INGELHEIM PHARMACEUTICALS INC., priority 1991, dated 1992):
≈ marks a conversion by molar mass, not a printed value. Like-named read-outs stand apart in the source and are kept apart here.

What was measured:
[1] = molecular target: T1, HIV-1 RT (Human immunodeficiency virus type 1 group M subtype B, UniProt P03367); assay: Reverse Transcriptase (RT) Assay: RNA-dependent DNA polymerase activity, poly r(C)/oligo d(G) template, 3H-dGTP; type: biochemical
T1 construct: Reverse transcriptase enzyme from the LAV strain of Human Immunodeficiency Virus (HIV-1) (1) was isolated from the bacterial strain JM109; made in house; host or cells: E. coli JM109, clone pBRTprt1+ in vector pIBI21 (lac promoter, IPTG induction)
Source text: Utilizing the Reverse Transcriptase (RT) Assay described below, compounds can be tested for their ability to inhibit the RNA-dependent DNA polymerase activity of HIV-1 RT. Certain specific compounds described in the Examples which appear below, were so tested.
Among the enzymes for which Human Immunodeficiency Virus (HIV-1) encodes is a reverse transcriptase (1), so-named because it transcribes a DNA copy from an RNA template. This activity can be quantitatively measured in a cell-free enzyme assay, which has been previously described (2), and is based upon the observation that reverse transcriptase is able to use a synthetic template [poly r(C) primed with oligo d(G)] to transcribe a radio-labelled, acid-precipitable DNA strand utilizing ^3H-dGTP as a substrate.
Reverse transcriptase enzyme from the LAV strain of Human Immunodeficiency Virus (HIV-1) (1) was isolated from the bacterial strain JM109 (3) expressing the DNA clone pBRTprt1+ (2) which is under the control of the lac promotor in the expression vector pIBI21 (4). An overnight culture grown in 2XYT medium (37°C, 225 rpm) (5) supplemented with 100 µg/ml ampicillin for positive selection is inoculated at a 1:40 dilution into M9 medium supplemented with 10µg/ml thiamine, 0.5% casamino acids, and 50 µg/ml ampicillin (5). The culture is incubated (37°C, 225 rpm) until it reaches an OD540 of 0.3-0.4. At that time the repressor inhibitor IPTG (isopropyl β-D-thiogalactopyranoside) is added to 0.5mM, and the mixture is incubated for 2 additional hours. Bacteria are pelleted, resuspended in a 50mM Tris, 0.6mM EDTA, 0.375M NaCl buffer and digested by the addition of lysozyme (1mg/ml) for 30 minutes on ice. The cells are lysed by the addition of 0.2% NP-40 and brought to 1M NaCl.
After removal of the insoluble debris by centrifugation, the protein is precipitated by the addition of 3 volumes of saturated aqueous ammonium sulfate. The enzyme is pelleted, resuspended in RT buffer (50mM Tris pH 7.5, 1mM EDTA, 5mM DTT, 0.1% NP-40, 0.1M NaCl, and 50% glycerol), and stored at -70°C for further use.
b) Composition of 2X concentrated stock reaction mixture used in testing of compounds 1 to 15
Composition of 2X concentrated stock reaction mixture used in testing compounds 16 and 17
The 2X concentrated stock reaction mixture is aliquoted and stored at - 20°C. The mixture is stable and thawed for use in each assay. This enzyme assay has been adapted to a 96 well microtiter plate system, and has been previously described (6). Tris buffer (50 mM, pH 7.4), vehicle (solvent diluted to match the compound dilution), or compounds in vehicle are dispensed into 96-well microtiter plates (10µl/well; 3 wells/compound). The HIV-1 RT enzyme is thawed, diluted in 50mM Tris pH 7.8 (50mM Tris pH 7.4 in the case of compounds 16 and 17) so that fifteen µl of diluted enzyme contain 0.001 Unit (one unit is that amount of enzyme to transform 1 micromole of substrate per minute at 25°C), and fifteen µl are dispensed per well. Twenty µl of 0.12-0.5M EDTA are added to the first three wells of the microtiter plate. EDTA chelates the Mg^++ present and prevents reverse transcription. This group serves as background polymerization which is subtracted from all other groups. Twenty-five ul of the 2X reaction mixture are added to all wells and the assay is allowed to incubate at room temperature for 60 minutes. The assay is terminated by precipitating the DNA in each well with 50µl of 10% trichloracetic acid (TCA) (10% w/v) in sodium pyrophosphate (1% w/v). The microtiter plate is incubated for 15 minutes at 4°C and the precipitate is fixed onto #30 glass fiber paper (Schleicher & Schuell) using a Skatron semi-automatic harvester. The filters are then washed with additional TCA (5%) containing sodium pyrophosphate (1%), rinsed with aqueous ethanol (70%), dried, and transferred to scintillation vials (6). […]

[2] = system: HTLV-IIIB strain of HIV-1; assay: Human T-Cell Culture Assay (syncytia formation in c8166 cells); type: cell-based; details: Human immunodeficiency virus 1, IIIB, 96 h, syncytia read four days after virus challenge
Description: In order to confirm that compounds which are active in the RT Assay also have the ability to inhibit HIV replication in a living system, compounds according to the invention were also tested in the human T-Cell Culture Assay described below.
Assay Theory: Formation of syncytia is a feature of in vitro cultures of CD4+ T-cells infected with HIV-1. In this assay, T-cells are treated with a putative replication inhibiting compound and then infected with HIV-1. After incubation, the culture is checked for the formation of syncytia. The absence or reduction in the number of syncytia is used as a measure of the test compound's ability to inhibit HIV replication.
Assay Method: The target cells, designated c8166, are a subclone of human lymphoma cells of T-cell origin and are established at an initial density of 5x10^4 per 100 ul in RPMI 1640 (+ 10% fetal bovine serum) culture medium in 96 well flat bottom plates. A selected amount of test compound, dissolved in DMSO, is included. After 24 hours, 50-100 TCID50's (the dose that results in induced effect in 50% of test cultures) of the HTLV-IIIB strain of HIV-1 (2) are inoculated into each culture. Control cultures receive compound or virus only. Four days after virus challenge, cultures are visually examined for the frequency and distribution of virus-induced giant cell syncytia. The percent inhibition by the test compound is determined by comparison with control values. Confirmation of the presence or absence of virus replication is accomplished by harvesting the cell free culture fluids from all experimental groups to determine the presence or absence of infectious progeny through the induction of syncytia formation in secondary human T-cell cultures after 3 days.

[3] = in vitro; type: cell-based; details: human, c8166 cells
Description: In order to roughly assess the cytotoxicity of the compounds provided by the invention, several such compounds were tested in the MTT Cellular Cytotoxicity Assay described below. Compounds having a relatively high EC50 are preferred.
The MTT [3-(4,5-dimethylthiazol-2-yl)-2,5 diphenyl tetrazolium bromide) assay is based on cleavage of tetrazolium bromide by metabolically active cells, resulting in a highly quantitative blue color. This assay has been previously described (1) but has been optimized for the purposes of the testing reported herein.
The c8166 cell line (2), an established human lymphoma suspension cell line grown in RPMI 1640 supplemented with 10% fetal bovine serum, is used as the target cell line in the assay. Cells (100µl) are plated in microtest plate wells at a concentration of 10^5 cells per ml in the presence of varying concentrations of inhibitor. The cells are incubated at 37°C in a humidified CO2 incubator. Five days later, 20µl of MTT (5mg/ml in RPMI 1640, sonicated, 0.2 micron filtered, and stored at 4°C) is added to each well. After 4 hours additional incubation at 37°C, 60µl of Triton-X is added to each well and thoroughly mixed to aid the solubilization of the crystals. Absolute ethanol (5µl) is added to each well and the resulting mixture is incubated for 30 minutes at 60°C and immediately read on a plate reader (Dynatech) at a wavelength of 570nm. […]

[4] = 10 µg/ml, reaction mixture for compounds 1 to 15 (Tris pH 7.8, KCl, human serum albumin, 6µM 3H-dGTP in 2X mix), read-out: RT Assay % inhibition @ 10 µg/ml
[5] = pH 7.4, read-out: RT Assay % inhibition @ 10 µg/ml

| Molecule | inhibition at 3 µg/mL [2] | inhibition at 10 µg/mL [1, 4] | also measured |
| --- | --- | --- | --- |
| 2.4-Dimethyl-11-ethyl-6-pyrrolidino-11H-dipyrido[3,2-b:2',3'-e][1,4]diazepine [Example 10] | – | – | RT Assay % inhibition @ 10 µg/ml ([1]; 10 µg/ml, reaction mixture for compounds 1 to 15 (Tris pH 7.8, KCl, human serum albumin, 6µM 3H-dGTP in 2X mix)): 91% |
| Cc1ccnc2c1N=C(Cl)c1cccnc1N2C1CC1 [Example 1, 6-Chloro-11-cyclopropyl-4-methyl-11H-dipyrido[3,2-b:2',3'-e][1,4]diazepine] | > 90% | – | CC50 at 120 h [3]: > 5 µg/mL |
| Cc1ccnc2c1N=C(C#N)c1cccnc1N2C1CC1 [Example 2, 6-Cyano-11-cyclopropyl-4-methyl-11H-dipyrido[3,2-b:2',3'-e][1,4]diazepine] | > 50% | – | CC50 at 120 h [3]: 28 µg/mL (≈ 102 µM) |
| CCN1c2ncccc2C(C#N)=Nc2c(C)cc(C)nc21 [Example 3, 6-Cyano-2,4-dimethyl-11-ethyl-11H-dipyrido[3,2-b:2',3'-e][1,4]diazepine] | > 50% | – | – |
| CCOC(=O)CSC1=Nc2c(C)ccnc2N(C2CC2)c2ncccc21 [Example 5] | – | 98% | – |
| Cc1ccnc2c1N=C(n1ccnc1)c1cccnc1N2C1CC1 [Example 9] | – | 97% | – |
| Cc1ccnc2c1N=C(S(C)(=O)=O)c1cccnc1N2C1CC1 [Example 14, 11-Cyclopropyl-4-methyl-6-methylsulfonyl-dipyrido[3,2-b:2',3'-e][1,4]diazepine] | – | 100% | – |
| CCOC1=Nc2c(C)cccc2Nc2ncccc21 [Example 16, 5-Ethoxy-7-methyl-11H-pyridol[2,3-b][1,5]benzodiazepine] | – | – | inhibition at 10 µg/mL [1, 5]: 59% |
| COC1=Nc2ccccc2N(C)c2ncccc21 [Example 17, 5-Methoxy-11-methyl-11H-pyrido[2,3-b][1,5]benzodiazepine] | – | – | inhibition at 10 µg/mL [1, 5]: 82% |
